The source of these data is patent publication US6413983B1, “Benzopyranyl heterocycle derivatives, process for preparation thereof, and pharmaceutical compositions containing them” (Dongbu Hannong Chemical Co. Ltd., priority 2000, dated 2002).

In general, LD50 refers to the dose expected to kill half of the subjects tested. High values mean lower toxicity, low ones greater toxicity. In general, pIC50 refers to −log10 of the IC50, conventionally taken in molar units. High values mean a low IC50, low ones a high IC50. Usually % Inhibition stands for the share of the control response that was lost under treatment. A high value points to strong suppression.

pIC50: −log10 of the molar value.

One series in a line: in vivo. To be noted: SD, rat, po, 1 g/kg.
Series [1] has as its system isolated rat aorta constricted with methoxamine. The series can be described thus: Vasodilation effects on isolated aorta of rats (methoxamine-constricted rings). To be noted: isolated rat aorta constricted with methoxamine (3 μM); 50% relaxation.
From the text: Male Sprague-Dawly rats (350-450 g, obtained from the Experimental Animal Team of the Korea Research Institute of Chemical Technology) were knocked unconscious by hitting the occipital region, sacrificed by cervical dislocation, and underwent thoracotomy. After being quickly removed, the thoracic aorta was deprived of the adipose tissue and cut into aortic rings of 3 mm width. The aorta was lightly rubbed with cotton club soaked in a modified Krebs Henseleit buffer (Physiological Salt Solution, PSS) to remove the inner epithelial layer therefrom.
Thereafter, 3×10^−6 M methoxamine was applied to induce an intensive constriction in the vascular smooth muscle. When the vasoconstriction induced by the methoxamine was reached and maintained to a maximum, test compounds and controls were cumulatively added to the organ baths in concentrations of 1, 3, 10 and 30 μM so as to examine the vasodilation effect.
The change rate of constriction by the addition of the drugs compared to the maximal constriction induced by methoxamine was calculated to plot a concentration-relaxation response curve.
The test system of a further series is isolated rat hearts. Briefly: Cardioprotective activity in isolated ischemic heart models of rats (Langendorff, global ischemia/reperfusion). The following applies: 10 μM; for LDH (U/g): cumulative reperfusion LDH release; for EDP (MmHg): left ventricular end-diastolic pressure after 30 min reperfusion; for LDVP × HR (%): reperfusion double product as % of pretreatment DP, 30 min global ischemia, 30 min reperfusion; for TTC: time to contracture during global ischemia. The procedure:
Male Sprague-Dawley rats weighing 300-450 g were anesthetized with sodium pentobarbital (100 mg/kg, i.p.). The tail vein was injected with heparin (1,000 U/kg) and then the trachea was intubated. […] A latex balloon filled with solvent (ethanol: water=1:1 (v/v)) and attached to a metal cannula was placed in the left ventricle through pulmonary vein and connected to a Isotec pressure transducer (H.S.E., Germany) for measurement of left ventricular pressure (LVP). […] Then, baseline contractile function, heart rate (HR), and coronary flow (CF) (extracorporeal electromagnetic flow probe, Narco Bio-System, U.S.A.) were measured. Cardiac contractile function was calculated by subtracting LVEDP from LV peak systolic pressure (LVSP), yielding developed pressure (LVDP). Double product (DP), another important parameter for assessing cardiac performance, was calculated by multiplying HR by LVDP. Throughout the experiment, all these parameters were measured, and calculated before and 10 min after pretreatment with each compound and 30 min after the onset of reperfusion with buffer. Data on reperfusion DP were further expressed as the percentage to pretreatment DP.
We then rendered the hearts globally ischemic by completely shutting off the perfusate for 30 min. Severity of ischemia was determined as the time to contracture (TTC, min) during global ischemia in which the first 5 mmHg increase in EDP was observed. Then, the hearts were reperfused and, 30 min later, contractile function (LVDP, DP) and cumulative reperfusion lactate dehydrogenase (LDH) release were measured. LDH was measured as a sensitive index for loss of cell viability with a kit supplied by Boerhinger Mannheim based on the technique of Wroblewski and LaDue [F. Wroblewski and JS.

Series [2] deals with ischemic myocardium damage model of anesthetized rats. Briefly: Cardioprotective activity in ischemic heart models of rats (LAD occlusion/reperfusion, anesthetized rats). The format is in vivo, rat. The following applies: rat in vivo, 0.3 mg/kg i.v.; for AAR/LV (%): area at risk per left ventricle; for IZ/AAR (%): myocardial infarction rate to area at risk, 45 min occlusion, 90 min reperfusion. The procedure:
After trachetomy, the rats were rendered to respire artificially at a rate of 60/min with a stroke volume of 10 ml/kg. Cannulars were inserted into the fermoral vein and the fermoral artery and used for drug administration and blood pressure measurement, respectively.
In the ischemic myocardial injury models, the body temperature has an important influence on the results. To avoid the change in the body temperature, a body temperature measuring probe was inserted into the rectum of each rat and the body temperature was constantly kept at 37° C. with the aid of a homeothermic blanket control unit.
Afterwards, during testing, a continuous measurement was made of the mean arterial blood pressures and heart rates from the rats. For the measurement of the blood pressure, a pressure transducer, such as that manufactured by Grass Ins., MA, U.S.A., identified as Model Statham P23XL, was used.
The heart rate was measured by a tachometer, such as that manufactured by Gould Inc., Ohio, U.S.A., identified as Biotachometer. In addition, all of the changes occurring were continuously recorded through the Gould 2000 chart recorder, manufactured by Gould Inc.
The left coronary artery was occluded according to the Selye H. method as follows. The rats underwent a left thoracotomy operation for partial opening of the chest and the right-side chest was pressurized by the middle finger of the left hand to push the heart out. Immediately after the left anterior descending coronary artery hereinafter referred to as (LAD) was carefully stitched using a suture needle with 5-0 silk ligature, the heart was then repositioned in the thoracic cavity while both ends of the ligature were situated outside. The opposite ligature ends were passed through a PE tube (PE100, 2.5 cm) and allowed to stand loose for 20 min for stabilization. Via the cannula inserted into the femoral vein, vehicles or drugs were administered into the rats which were rendered to stand for 30 min in order to sufficiently elicit the efficacies of the drugs.
Next, the PE tube which had the doubled strands of the ligature passed therethrough was pushed toward the heart and then, set upright by tightly pulling end regions of the ligature with a hemostatic pincette while pressing the coronary artery.
After the reocclusion of the coronary artery in accordance with the above procedure, the rats were administered with 2 ml of a 1% Evans blue through an intravenous route. Subsequently, an excess of pentobarbital was intravenously injected to kill the rats, after which the heat was removed and then, deprived of the right ventricle and both atria. The left ventricle was cut horizontally to the heart apex into 5 or 6 slices which were weighed. From the surface of each slice, images were input with the aid of a Hi-scope into a computer installed with an image analyzing program (Image Pro Plus). From the images input into the computer, the area of the normal blood stream tissue region which appeared blue in a computer monitor and the area which appeared colorless were measured. The percentage of the colorless area to the total area of each slice was calculated and multiplied by the weight of each slice to determine the area at risk (AAR) of each slice. The AAR obtained from each slice was summed for all slices and the total AAR was divided by the total weight of the left ventricle to yield % AAR, as shown in the following mathematical formula 1:
AAR(%)=(summed AAR for all slices)/(total weight of left ventricle)×100 [Mathematical Formula 1]
During this fixation, 2,3,5-triphenyltetrazolium chloride was reduced into formazan dye by the myocardial dehydrogenase and its cofactor NADH, so that the normal regions of the tissue were colored brick-red. In contrast, the infarct zones of the tissue were deficient in the dehydrogenase and its cofactor, so that no reduction occurred on the 2,3,5-triphenyltetrazolium, allowing the color to remain unchanged.

Series [3] concerns cerebral cortical neurons. The series can be described thus: Protective activity for neuronal cells against iron-induced damage (LDH release). The series is classed as cell-based, rat. The following applies: 30 μM compound, 50 uM FeSO4, 24 hours, LDH reduction rate vs control. The procedure: From the brains of 17-18 day-old rat embryos, cerebral cortical neurons were isolated and then, cultured at 37° C. for 7-9 days in a 5% CO2 incubator. The cortical cell cultures were washed twice with a minimum essential medium (MEM) to reduce the serum concentration to 0.2% and pre-treated for 30 min with 30 μM of each of test compounds. For the experiments, the test compounds were dissolved in DMSO and diluted in a medium. At this time, the final concentration of DMSO was not allowed to exceed 0.2%. For a control group, only vehicle was applied.
After the pre-treatment with test compounds or vehicle, FeSO4 was added to a final concentration of 50 uM, and the cultures were maintained for 24 hours in a CO2 incubator. During incubation, lactate dehydrogenase (LDH) was released into the medium upon neuronal death by the oxidative toxicity of iron. The extent of neuronal damage was assessed by measuring the amount of LDH released into the media. The protective effect of the compounds of interest on neurons was evaluated by calculating the LDH reduction rate of treatment group compared with that of the control group.
A general note: LDH in the medium is a marker of cell lysis.

For another series, the system named is rat brain homogenate. The series can be described thus: Inhibitory activity against iron-induced lipid peroxidation (MDA quantification). The series is classed as biochemical. The following applies: 100 μM compound, 400 μM FeCl2, 37° C., 30 min, MDA reduction rate vs control. The procedure:
The rat brain was homogenized in a Krebs buffer (15 mM HEPES, 10 mM glucose, 140 mM NaCl, 3.6 mM KCl, 1.5 mM CaCl2, 1.4 mM KH2PO4, 0.7 mM MgCl2, pH 7.4) and the supernatant separated by centrifugation at 12,000 rpm for 10 min was used for further experiments. FeCl2 was added to a final concentration of 400 μM in the brain homogenate which was then allowed to stand at 37° C. for 30 min for the facilitation of oxidation. Each of the test compounds was added at a concentration of 100 μM and vehicle was used as a control.
Iron facilitates the oxidation of the brain homogenate to produce malondialdehyde (MDA), a lipid peroxidation product. Thus, the lipid peroxidation was determined by MDA quantification. The inhibitory effect of the test compounds against the lipid peroxidation was evaluated by calculating MDA reduction rate of the test compounds compared with that of the control group.
Typically, the MDA quantification is achieved by reacting samples with 2-thiobarbituric acid (TBA) and measuring the absorbance at 530 nm. However, this method is unsuitable to treat samples on a large scale because of a boiling step. Thus, in this experiment, N-methyl-2-phenylindole was used instead of TBA. […] Bioxytech^R LPO-586 Kit was used for MDA quantification.

Method for in vivo: In this test six-week old SPF SD rats were used with two rats assigned to each group. […] The dosing volume was 10 ml/kg. […] All survivors at the end of the observation period underwent laparotomy under ether anesthesia and the blood samples were taken from the abdominal aorta for hematological tests and biochemical analysis. After sacrificing the animals, autopsy was performed for macroscopic observation of the organs and tissues. Tissue samples of vital organs from macroscopic legion were removed and fixed in 10% neutral buffered formalin solution, then processed by standard procedures for histopathology and examined under light microscope.

As to `CCOC(=O)[C@H]1Cc2ccccc2N1[C@@H]1c2cc([N+](=O)[O-])ccc2O[C@@](C)(C(OC)OC)[C@H]1O` [Example 30, 1-[(2R, 3S, 4R)-3,4-dihydro-2-dimethoxymethyl-3-hydroxy-2-methyl-6-nitro-2H-1-benzopyran-4-yl]-(2R)-2,3-dihydro-1H-indole-2-carboxylic acid ethyl ester], in the series “in vivo”, the median lethal dose (LD50) was more than 1000 mg/kg. This molecule also gave a pIC50 in series [1] of less than 4.52. Besides, in the series on isolated rat hearts, the “LDH (U/g)” value came out at 9.2 U/g, the “EDP (MmHg)” value is 11.3 MmHg, the “LDVP × HR (%)” value was 64.1% and the “TTC” value was 27.1 min. In series [2], the “AAR/LV (%)” value was 33.6% and the “IZ/AAR (%)” value stood at 38.9%.
For the molecule `CCOC(=O)c1cc2ccccc2n1[C@@H]1c2cc(N)ccc2O[C@](C)(C(OC)OC)[C@H]1O` [Example 53, 1-[(2S, 3S, 4R)-6-amino-3,4-dihydro-2-dimethoxymethyl-3-hydroxy-2-methyl-2H-1-benzopyran-4-yl]-1H-indole-2-carboxylic acid ethyl ester], the “% Protection” value in series [3] (listed as EX. 53) came to 94%. Also, in the series on rat brain homogenate (listed as EX. 53), the “% Inhibition” value is given as 91%.
Consider `COC(OC)[C@@]1(C)Oc2ccc([N+](=O)[O-])cc2[C@H](N2c3ccccc3C[C@H]2C(=O)OC(C)C)[C@H]1O` [Example 10, 1-[(2S, 3R, 4S)-3,4-dihydro-2-dimethoxymethyl-3-hydroxy-2-methyl-6-nitro-2H-1-benzopyran-4-yl]-(2S)-2,3-dihydro-1H-indole-2-carboxylic acid isopropyl ester], for which the 50% lethal dose (LD50) in the series “in vivo” is more than 1000 mg/kg.
The molecule `CCCOC(=O)[C@H]1Cc2ccccc2N1[C@@H]1c2cc([N+](=O)[O-])ccc2O[C@@](C)(C(OC)OC)[C@H]1O` [Example 34, 1[-(2R, 3S, 4R)-3,4-dihydro-2-dimethoxymethyl-3-hydroxy-2-methyl-6-nitro-2H-1-benzopyran-4-yl]-(2R)-2,3-dihydro-1H-indole-2-carboxylic acid n-propyl ester] returned an LD50 in “in vivo” of more than 1000 mg/kg.
Turning to `CCOC(=O)c1cc2ccccc2n1[C@H]1c2cc(N)ccc2O[C@](C)(C(OC)OC)[C@@H]1O` [Example 52, 1-[(2S, 3R, 4S)-6-amino-3,4-dihydro-2-dimethoxymethyl-3-hydroxy-2-methyl-2H-1-benzopyran-4-yl]-1H-indole-2-carboxylic acid ethyl ester], in series [3], the “% Protection” value was 100%. The “% Inhibition” value in the series with rat brain homogenate (listed as EX. 52) is reported as 95%.
For `CCOC(=O)[C@@H]1Cc2ccccc2N1[C@H]1c2cc([N+](=O)[O-])ccc2O[C@](C)(C(OC)OC)[C@@H]1O` [Example 2, 1-[(2S, 3R, 4S)-3,4-dihydro-2-dimethoxymethyl-3-hydroxy-2-methyl-6-nitro-2H-1-benzopyran-4-yl]-(2S)-2,3-dihydro-1H-indole-2-carboxylic acid ethyl ester], in series [3], the “% Protection” value is listed as 79%. In the series “in vivo”, this molecule gave a 50% lethal dose (LD50) of more than 1000 mg/kg. The molecule also gave a pIC50 in series [1] of 4.61. Further, in the series with isolated rat hearts, the “LDH (U/g)” value stood at 17.8 U/g, the “EDP (MmHg)” value is reported as 25.7 MmHg, the “LDVP × HR (%)” value came to 55.1% and the “TTC” value came to 22.6 min. In series [2], the “AAR/LV (%)” value came out at 32.6% and the “IZ/AAR (%)” value was determined as 39.1%.
